Columns and labels:
[1] = target: Beta-2 adrenergic receptor (Mus musculus) (UniProt P18762); assay: KD constant value was evaluated for the displacement of ICYP (iodocyanopindolol) binding
[2] = target: Beta-2 adrenergic receptor (Mus musculus) (UniProt P18762); assay: KD constant value was evaluated for the displacement of ICYP (iodocyanopindolol) binding in […] lymphoma cell

Sequence of Beta-2 adrenergic receptor (Mus musculus) (P18762 whole entry, looked up): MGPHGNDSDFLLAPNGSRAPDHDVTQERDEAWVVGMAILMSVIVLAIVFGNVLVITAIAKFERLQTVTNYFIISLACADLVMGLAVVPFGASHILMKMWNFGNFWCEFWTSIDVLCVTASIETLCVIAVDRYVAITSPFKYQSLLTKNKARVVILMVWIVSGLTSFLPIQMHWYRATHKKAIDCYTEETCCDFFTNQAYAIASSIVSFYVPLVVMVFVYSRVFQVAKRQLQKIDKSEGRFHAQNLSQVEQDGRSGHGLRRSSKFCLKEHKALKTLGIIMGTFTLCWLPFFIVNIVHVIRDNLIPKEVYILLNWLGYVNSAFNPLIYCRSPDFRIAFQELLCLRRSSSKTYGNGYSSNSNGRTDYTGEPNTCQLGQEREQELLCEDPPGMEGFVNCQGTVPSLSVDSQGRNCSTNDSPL

Question: Cc1ccc(C(=O)NCCCCC(C)NCC(O)c2ccc(O)c(O)c2)cc1 (stereo not drawn) was tested. Which Kd [1] did it give?
Answer: 0.32 µM

Question: How did the Kd [2] turn out when Cc1ccc(NC(=O)NCCCCC(C)NCC(O)c2ccc(O)c(O)c2)cc1 (stereo not drawn) was run?
Answer: 470 nM

Question: CC(CCCCN)NCC(O)c1ccc(O)c(O)c1 (stereo not drawn) was tested. Which Kd [1] did it give?
Answer: 10 µM
